Values quoted from earlier work in EP3628310A1, “PHARMACEUTICAL COMPOSITION COMPRISING SOLID DISPERSIONS OF AMORPHOUS CLADRIBINE AND PHARMACEUTICALLY ACCEPTABLE WATER SOLUBLE CARRIER” (Synbias Pharma AG, priority 2018, dated 2020).
Read-outs that look alike come from different tables or passages of the source.

Nc1nc(Cl)nc2c1ncn2[C@H]1C[C@H](O)[C@@H](CO)O1 [Tablet 2-CdA, 2-chloro-2'-deoxyadenosine]
calculated half time T1/2 (pH 1, 37°C): 22.2 min
2-CdA content (pH 1, after 2 h of heating to 37°C): 2%
2-CdA remains in solution (pH 2, 37°, after 6 h): 13%
calculated half time T1/2 (pH 2, 37°C): 96 min
